Experiments:
hairless mice = assay: Erythematous response after topical application of nicotinic acid esters to hairless mice; type: in vivo; settings: for Erythematous Response: topical, 0.5 to 2.0% (wt/wt) in 200 mg lotion daily for one week, hairless mice; for cutaneous vasodilation: topical niacin esters
Description: Female hairless mice (HRS-J. 6-8 weeks old were used.) These were housed in solid bottom cages provided with sterile feed and water […], with a 14:10 light-dark cycle. The nicotinic acid esters of Example 1 were applied with a gloved finger daily to the backs of hairless mice in 200 mg of Vanicream Lite™ skin care lotion (Pharmaceutical Specialties, Inc., containing purified water, white petrolatum, ceteareth alcohol and ceteareth-20, propylene glycol, sorbitol solution, simethicone, glyceryl monostearate, polyethylene glycol monostearate, sorbic acid and BHT) at concentrations in the range of 0.5 to 2.0% (wt/wt) for one week. Control mice received 200 mg of the lotion alone. […] Dorsal and ventral skin samples were immediately frozen in liquid nitrogen and stored at −80° C.

[1] = test system: apoB100/CETP double transgenic mice; assay: Plasma lipid profiles of apoB100/CETP double transgenic mice, transdermal lauryl niacin ester vs oral niacin, 90 days; type: in vivo
Description: Niacin intake was estimated from the water consumed.
For topical administration, niacin lauryl esters was applied daily to the shaved backs of mice in 200 mg of lotion at concentrations of 1, 2, 5 and 10% (wt/wt) for 13 weeks. Per 25-g mouse, the daily topical doses would be in the range of 34 to 340 mg/kg as niacin. Control mice received equal amounts of the vehicle lotion alone. A lipid analysis was performed as described in Example 4.
Improvement of lipid profiles of apoB100/CETP transgenic mice treated with niacin prodrug. The effect of transdermal delivery of lauryl niacin ester on plasma lipid profiles in a comparison with oral niacin in the apoB100/CETP double transgenic mice for 90 days. A total of six groups of six animals were used in this study. For topical administration, lauryl niacin ester was applied daily to the shaved backs of mice. For oral administration, niacin (sodium salt) was dissolved in the drinking water.

mice = settings: oral niacin; study not named at the place
Description: Additionally, a plasma lipid analysis was performed by taking fasting (16 h) blood samples of the hairless mice were obtained at the beginning, at 30 days and 60 days from the retroorbital plexus, and at the end of treatment by cardiac puncture. The animals were euthanized by cardiac injection of pentobarbital prior to blood collection. Blood was collected into microfuge tubes containing 10 μl of heparin, plasma separated by centrifugation at 2,000×g for 15 minutes and stored at -80° C. until analysis within 1 week. Total cholesterol, HDL-C and triglycerides were measured enzymatically, using a clinical chemistry analyzer Syncrhon CX7 by Beckman). Female apoB/CETP double transgenic mice (Taconic Biotechnology, Germantown, N.Y.) were divided into 6 groups and housed in groups of 6 animals per. […] For oral administration, niacin (sodium salt) was dissolved in drinking water at a concentration of 0.75% (0.63% as free acid). Niacin intake was estimated from the water consumed. The estimated daily niacin intake was approximately 1,400 mg/kg. The oral dose used was 760 mg/kg/day and the topical dose was 250 mg/kg/day as niacin.

[2] = topical, daily to shaved backs, one-fourth the dose of the oral treatment
[3] = oral, sodium salt in drinking water

## COC(=O)c1cccnc1 [1 carbon]
Hairless mice
  Erythematous Response: Yes

## CCOC(=O)c1cccnc1 [2 carbons]
Hairless mice
  Erythematous Response: Yes

## CCCCOC(=O)c1cccnc1 [4 carbons]
Hairless mice
  Erythematous Response: Yes

## CCCCCCOC(=O)c1cccnc1 [6 carbons]
Hairless mice
  Erythematous Response: Yes

## CCCCCCCCOC(=O)c1cccnc1 [8 carbons]
Hairless mice
  Erythematous Response: Yes

## CCCCCCCCCCOC(=O)c1cccnc1 [10 carbons]
Hairless mice
  Erythematous Response: Slight
Hairless mice; listed as C10 ester
  Erythematous Response: reduced erythematous response

## CCCCCCCCCCCCOC(=O)c1cccnc1 [12 carbons, lauryl nicotinate]
Hairless mice
  cutaneous vasodilation: no cutaneous vasodilation
  Erythematous Response: No
[1]; [2]
  HDL-C elevated by: 8%
  LDL-C fraction lowered by: 38%
  total cholesterol lowered by: 15%
  triglycerides lowered by: 33%

## CCCCCCCCCCCCCOC(=O)c1cccnc1 [13 carbons]
Hairless mice
  Erythematous Response: No

## CCCCCCCCCCCCCCOC(=O)c1cccnc1 [14 carbons, myristyl nicotinate]
Hairless mice
  cutaneous vasodilation: no cutaneous vasodilation
  Erythematous Response: No

## CCCCCCCCCCCCCCCOC(=O)c1cccnc1 [15 carbons]
Hairless mice
  Erythematous Response: No

## CCCCCCCCCCCCCCCCOC(=O)c1cccnc1 [16 carbons]
Hairless mice
  Erythematous Response: No

## CCCCCCCCCCCCCCCCCCOC(=O)c1cccnc1 [18 carbons]
Hairless mice
  Erythematous Response: No

## O=C(O)c1cccnc1 [niacin, nicotinic acid]
[1]; [3]
  HDL-C fraction lowered by: 13%
  LDL fraction lowered by: 45%
  total cholesterol lowered by: 29%
  triglycerides lowered by: 37%
mice
  total cholesterol lowered by: 12%
